PubChem BioAssay AID1259407 (Chemical Carcinogenesis Research Information System (CCRIS), 2018)
Active and inactive are the calls of the source. How the calls were made is not given here.

Tested on: CCRIS mutagenicity, Ames/micronucleus/aberration tests
Assay: CCRIS mutagenicity studies
[1] = Test System: AMES SALMONELLA TYPHIMURIUM, Strain/Indicator: TA98, Metabolic Activation: NONE, Method: PREINCUBATION
[2] = Test System: AMES SALMONELLA TYPHIMURIUM, Strain/Indicator: TA98, Metabolic Activation: NONE, Method: STANDARD PLATE
[3] = Test System: AMES SALMONELLA TYPHIMURIUM, Strain/Indicator: TA100, Metabolic Activation: NONE, Method: PREINCUBATION
[4] = Test System: AMES SALMONELLA TYPHIMURIUM, Strain/Indicator: TA100, Metabolic Activation: NONE, Method: STANDARD PLATE

COc1ccc(C(=O)N2CCN(c3ccc4c(c3)CCC(=O)N4)CC2)cc1OC
mutagenic call (Test System: AMES SALMONELLA TYPHIMURIUM, Strain/Indicator: TA97, Metabolic Activation: NONE, Method: STANDARD PLATE): inactive; negative
mutagenic call (Test System: AMES SALMONELLA TYPHIMURIUM, Strain/Indicator: TA97, Metabolic Activation: S-9, Method: STANDARD PLATE): inactive; negative
mutagenic call [1]: inactive; negative
mutagenic call [2]: inactive; negative
mutagenic call (Test System: AMES SALMONELLA TYPHIMURIUM, Strain/Indicator: TA98, Metabolic Activation: RAT, LIVER, S-9, Method: PREINCUBATION): inactive; negative
mutagenic call (Test System: AMES SALMONELLA TYPHIMURIUM, Strain/Indicator: TA98, Metabolic Activation: S-9, Method: STANDARD PLATE): inactive; negative
mutagenic call [3]: inactive; negative
mutagenic call [4]: inactive; negative
mutagenic call (Test System: AMES SALMONELLA TYPHIMURIUM, Strain/Indicator: TA100, Metabolic Activation: RAT, LIVER, S-9, Method: PREINCUBATION): inactive; negative
mutagenic call (Test System: AMES SALMONELLA TYPHIMURIUM, Strain/Indicator: TA102, Metabolic Activation: NONE, Method: STANDARD PLATE): inactive; negative
mutagenic call (Test System: AMES SALMONELLA TYPHIMURIUM, Strain/Indicator: TA102, Metabolic Activation: S-9, Method: STANDARD PLATE): inactive; negative
mutagenic call (Test System: AMES SALMONELLA TYPHIMURIUM, Strain/Indicator: TA1535, Metabolic Activation: NONE, Method: PREINCUBATION): inactive; negative
mutagenic call (Test System: AMES SALMONELLA TYPHIMURIUM, Strain/Indicator: TA1535, Metabolic Activation: RAT, LIVER, S-9, Method: PREINCUBATION): inactive; negative
mutagenic call (Test System: AMES SALMONELLA TYPHIMURIUM, Strain/Indicator: TA1537, Metabolic Activation: NONE, Method: PREINCUBATION): inactive; negative
mutagenic call (Test System: AMES SALMONELLA TYPHIMURIUM, Strain/Indicator: TA1537, Metabolic Activation: RAT, LIVER, S-9, Method: PREINCUBATION): inactive; negative
mutagenic call (Test System: AMES SALMONELLA TYPHIMURIUM, Strain/Indicator: TA1538, Metabolic Activation: NONE, Method: PREINCUBATION): inactive; negative
mutagenic call (Test System: AMES SALMONELLA TYPHIMURIUM, Strain/Indicator: TA1538, Metabolic Activation: RAT, LIVER, S-9, Method: PREINCUBATION): inactive; negative
mutagenic call (Test System: E. COLI, Strain/Indicator: WP2 UVRA, Metabolic Activation: NONE, Method: PREINCUBATION): inactive; negative
mutagenic call (Test System: E. COLI, Strain/Indicator: WP2 UVRA, Metabolic Activation: RAT, LIVER, S-9, Method: PREINCUBATION): inactive; negative

CC(C)(C)NC[C@H](O)COc1nsnc1N1CCOCC1
mutagenic call [2]: inactive; negative
mutagenic call (Test System: AMES SALMONELLA TYPHIMURIUM, Strain/Indicator: TA98, Metabolic Activation: RAT, LIVER, S-9, AROCLOR 1254, Method: STANDARD PLATE): inactive; negative
mutagenic call [4]: inactive; negative
mutagenic call (Test System: AMES SALMONELLA TYPHIMURIUM, Strain/Indicator: TA100, Metabolic Activation: RAT, LIVER, S-9, AROCLOR 1254, Method: STANDARD PLATE): inactive; negative

O=[N+]([O-])c1ccc2c(c1)Oc1cc(Cl)c(Cl)cc1O2
mutagenic call [2]: active; positive
mutagenic call (Test System: AMES SALMONELLA TYPHIMURIUM, Strain/Indicator: TA98, Metabolic Activation: RAT, LIVER, S-9, AROCLOR, Method: STANDARD PLATE): active; positive
mutagenic call [4]: active; positive
mutagenic call (Test System: AMES SALMONELLA TYPHIMURIUM, Strain/Indicator: TA100, Metabolic Activation: RAT, LIVER, S-9, AROCLOR, Method: STANDARD PLATE): active; positive

C=CCCC1CO1 (stereo unspecified)
mutagenic call [4]: active; positive
mutagenic call (Test System: AMES SALMONELLA TYPHIMURIUM, Strain/Indicator: TA1535, Metabolic Activation: NONE, Method: STANDARD PLATE): active; positive

c1ccc2c(c1)cc1c3cccc4cccc(c5cccc2c51)c43
mutagenic call (Test System: HUMAN H1A1V2 CELLS, Strain/Indicator: TK LOCUS, Metabolic Activation: NONE, Method: SUSPENSION/PLATE): active; positive

O=C1C=CC[C@H](/C=C/c2ccccc2)O1
mutagenic call (End Point: IN VITRO CHROMOSOMAL ABERRATIONS, Test System: CHO CELLS, Metabolic Activation: NONE): active; positive (structural changes)
mutagenic call (End Point: IN VITRO CHROMOSOMAL ABERRATIONS, Test System: CHO CELLS, Metabolic Activation: RAT, LIVER, S-9, AROCLOR 1254): active; positive (structural changes)

c1ccc2[nH]c(-c3cscn3)nc2c1
mutagenic call (End Point: IN VITRO MICRONUCLEUS, Test System: HUMAN LYMPHOBLASTOID WTK1 CELLS, Metabolic Activation: NONE): active; positive; uva radiation was 250 uw/cm2
mutagenic call (End Point: IN VITRO MICRONUCLEUS, Test System: V79 CELLS, Metabolic Activation: NONE): active; positive
mutagenic call (Test System: AMES SALMONELLA TYPHIMURIUM, Strain/Indicator: TA97, Metabolic Activation: NONE, BACTERIA IRRADIATED IN PRESENCE OF TEST COMPOUND WITH UVA FOR 10 MIN, TRANSFERRED TO MEDIUM, Metabolic Activation: NONE, BACTERIA IRRADIATED IN PRESENCE OF TEST COMPOUND WITH UVA FOR 10 MIN, TRANSFERRED TO MEDIUM, Method: STANDARD PLATE): active; positive; uva was 250 uw/cm2
mutagenic call (Test System: AMES SALMONELLA TYPHIMURIUM, Strain/Indicator: TA98, Metabolic Activation: HAMSTER, LIVER, S-9, AROCLOR 1254 (5 OR 30%), Method: PREINCUBATION): inactive; negative
mutagenic call (Test System: AMES SALMONELLA TYPHIMURIUM, Strain/Indicator: TA98, Metabolic Activation: HAMSTER, LIVER, S-9, AROCLOR 1254 (10%), Method: PREINCUBATION): active; positive
mutagenic call (Test System: AMES SALMONELLA TYPHIMURIUM, Strain/Indicator: TA98, Metabolic Activation: NONE, BACTERIA IRRADIATED IN PRESENCE OF TEST COMPOUND WITH UVA FOR 10 MIN, TRANSFERRED TO MEDIUM, Metabolic Activation: NONE, BACTERIA IRRADIATED IN PRESENCE OF TEST COMPOUND WITH UVA FOR 10 MIN, TRANSFERRED TO MEDIUM, Method: STANDARD PLATE): active; positive; response was just barely positive; uva was 250 uw/cm2
mutagenic call [1]: inactive; negative
mutagenic call (Test System: AMES SALMONELLA TYPHIMURIUM, Strain/Indicator: TA98, Metabolic Activation: RAT, LIVER, S-9, AROCLOR 1254 (30%), Method: PREINCUBATION): inactive; negative
mutagenic call (Test System: AMES SALMONELLA TYPHIMURIUM, Strain/Indicator: TA100, Metabolic Activation: HAMSTER, LIVER, S-9, AROCLOR 1254 (30%), Method: PREINCUBATION): inactive; negative
mutagenic call (Test System: AMES SALMONELLA TYPHIMURIUM, Strain/Indicator: TA100, Metabolic Activation: NONE, BACTERIA IRRADIATED IN PRESENCE OF TEST COMPOUND WITH UVA FOR 10 MIN, TRANSFERRED TO MEDIUM, Metabolic Activation: NONE, BACTERIA IRRADIATED IN PRESENCE OF TEST COMPOUND WITH UVA FOR 10 MIN, TRANSFERRED TO MEDIUM, Method: STANDARD PLATE): active; positive; uva was 250 uw/cm2
mutagenic call [3]: inactive; negative
mutagenic call (Test System: AMES SALMONELLA TYPHIMURIUM, Strain/Indicator: TA100, Metabolic Activation: RAT, LIVER, S-9, AROCLOR 1254 (30%), Method: PREINCUBATION): inactive; negative
mutagenic call (Test System: AMES SALMONELLA TYPHIMURIUM, Strain/Indicator: TA104, Metabolic Activation: NONE, BACTERIA IRRADIATED IN PRESENCE OF TEST COMPOUND WITH UVA FOR 10 MIN, TRANSFERRED TO MEDIUM, Metabolic Activation: NONE, BACTERIA IRRADIATED IN PRESENCE OF TEST COMPOUND WITH UVA FOR 10 MIN, TRANSFERRED TO MEDIUM, Method: STANDARD PLATE): active; positive; uva was 250 uw/cm2
mutagenic call (Test System: E. COLI, Strain/Indicator: WP2S/PKM101, Metabolic Activation: NONE, BACTERIA IRRADIATED IN PRESENCE OF TEST COMPOUND WITH UVA FOR 10 MIN, TRANSFERRED TO MEDIUM, Metabolic Activation: NONE, BACTERIA IRRADIATED IN PRESENCE OF TEST COMPOUND WITH UVA FOR 10 MIN, TRANSFERRED TO MEDIUM, Method: STANDARD PLATE): active; positive; uva was 250 uw/cm2
